{
  "source": "patent US20040097478A1",
  "about": "“Remedies for retina and choroid diseases containing steroids as the active ingredient” (SANTEN PHARMACEUTICAL O., LTD, priority 2001, published 2004)",
  "key": {"[1]": {"system": "Thrombin-induced rat retinal vessel hyperpermeability models", "test": "Retinal vessel permeability inhibition tests of betamethasone phosphate", "type": "in vivo", "conditions": "administered with thrombin", "protocol": "A one ml/kg mixed solution (7:1) of a 5% ketamine hydrochloride injection and a 2% xylazine hydrochloride injection was intramuscularly administered to rats to anesthetize them systemically. Then, a 0.5% tropicamide-0.5% phenylephrine hydrochloride ophthalmic solution was instilled into left eyes to cause mydriasis. Thrombin (500. U/ml, 2.5 μl) was injected into vitreous bodies (left eye) of rats of a drug administration group and a control group with a 33 G needle without injuring crystalline lenses and retinas while observing them with a microscope for operation. A vehicle (Dulbecco's modified phosphate buffer physiological saline) was administered to rats of a normal group instead of thrombin. […]\nForty-eight hours after administering thrombin intravitreously, the 0.5% tropicamide-0.5% phenylephrine hydrochloride ophthalmic solution was instilled into the eyes to cause mydriasis. […] About 40 minutes after administering fluorescein, blood was collected from hearts, and then an intraocular fluorescent pigment concentration was immediately measured with a fluorotron master. The collected blood was centrifuged at 15,000 rpm×5 minutes, then supernatant (plasma) was diluted 51 times with the phosphate buffer physiological saline, and a fluorescent pigment concentration in the plasma was measured with the fluorotron master. […]"}, "[2]": {"system": "Laser-induced rat choroidal neovascularization models", "conditions": "for Neovascularization exhibition rate (%, average of eight eyes): fluorescein fundus angiography on seventh day; for Choroidal neovascularization inhibition rate (%): versus vehicle administration group", "protocol": "(§1) A one ml/kg mixed solution (7:1) of a 5% ketamine hydrochloride injection and a 2% xylazine hydrochloride injection was administered intramuscularly to rats to anesthetize them systemically. A 0.5% tropicamide-0.5% phenylephrine hydrochloride ophthalmic solution was instilled into the eyes to cause mydriasis, and then photocoagulation was performed with a krypton laser photocoagulation apparatus. The photocoagulation was carried out in a posterior section of ocular fundus at eight spots per eye sparsely avoiding thick retinal vessels and focusing on the retinal depth (coagulation conditions: spot size: 100 μm, output: 100 mW, coagulation time: 0.1 sec). After the photocoagulation, the ocular fundus was photographed to confirm laser irradiation sites.\nTriamcinolone was suspended in the phosphate buffers as a comparative group so that its concentrations were 0.2 mg/ml and 2 mg/ml, and each suspension was administered similarly. The phosphate buffer was administered similarly as a vehicle administration group.\n(§2) On seventh day after the photocoagulation, 0.1 ml of 10% fluorescein was injected from carotid vein, and fluorescein fundus angiography was performed. In the fluorescein fundus angiography, a spot where fluorescence diapedesis was not observed was judged as negative, and a spot where fluorescence diapedesis was observed was judged as positive. Each neovascularization exhibition rate was obtained by calculating the ratio of a positive spot number to eight spots irradiated with the laser, and each choroidal neovascularization inhibition rate was calculated according to the following equation.\n(§3) Choroidal neovascularization inhibition rate (%)=(Ao−Ax)/Ao×100\n(§4) Ao: Neovascularization exhibition rate of vehicle administration group\n(§5) Ax: Neovascularization exhibition rate of drug administration group"}, "[3]": {"system": "Dispase-induced rabbit PVR models", "test": "Retinal detachment inhibition tests of betamethasone", "type": "in vivo", "conditions": "10 mg/eye subconjunctival immediately after dispase", "protocol": "A 0.5% tropicamide-0.5% phenylephrine hydrochloride ophthalmic solution was instilled into eyes of rabbits to cause mydriasis, and a 1 ml/kg mixed solution (7:1) of a 5% ketamine hydrochloride injection and a 2% xylazine hydrochloride injection was administered intramuscularly to the rabbits to anesthetize them systemically. 0.4% oxybuprocaine was instilled into the eyes to anesthetize anterior segments of the eyes, and then 100 μl of a dispase solution prepared at a concentration of 0.05 U/100 μl with physiological saline was injected into vitreous bodies. Six weeks and ten weeks after injecting the dispase solution, PVR induced by dispase was confirmed by observing ocular fundus.\nBetamethasone was dissolved in a phosphate buffer so that its concentration was 0.1 g/ml, and the solution was administered subconjunctivally in an amount of 100 μl immediately after injecting dispase. The phosphate buffer was administered similarly as a vehicle administration group.\nThe ocular fundus was observed 56 days after inducing by dispase, and PVR was judged by scores. Criteria of judgment are shown below. Scores of three or more were defined as exhibition of PVR, and pathogenesis rates of PVR (pathogenesis rates of retinal detachment) in respective groups were calculated according to the equation 2.\n1: A vitreous membrane is observed.\n2: Traction, vascular abnormality or engorgement of the retina is observed.\n3: Topical retinal detachment is observed.\n4: Wide retinal detachment is observed.\n5: Total retinal detachment is observed.\nPathogenesis rate of PVR (%)=PVR exhibition eye number/test eye number×100"}, "[4]": {"system": "Laser-induced rat choroidal neovascularization models", "test": "Choroidal neovascularization inhibition tests of hydrocortisone", "type": "in vivo", "conditions": "for Neovascularization exhibition rate (%, average of eight eyes): administered once subconjunctivally immediately after laser irradiation; for Choroidal neovascularization inhibition rate (%): once subconjunctivally, versus vehicle administration group", "protocol": "as §1, §2, §3, §4, §5\nHydrocortisone was dissolved in phosphate buffers so that its concentrations were 2 mg/ml and 20 mg/ml, and each solution was administered once subconjunctivally in an amount of 50 μl immediately after laser irradiation. The phosphate buffer was administered similarly as a vehicle administration group.\nEvaluation was carried out by a method similar to the above-mentioned tests of betamethasone sodium phosphate."}, "[5]": {"conditions": "10 μg/eye/day subconjunctival for seven days after laser irradiation"}, "[6]": {"conditions": "100 μg/eye/day subconjunctival for seven days after laser irradiation"}},
  "note": "Like-named read-outs stand apart in the source and are kept apart here.",
  "data": [
    {"smiles": "C[C@H]1C[C@H]2[C@@H]3CCC4=CC(=O)C=C[C@]4(C)[C@@]3(F)[C@@H](O)C[C@]2(C)[C@@]1(O)C(=O)COP(=O)([O-])[O-].[Na+].[Na+]", "note": "[Betamethasone sodium phosphate, betamethasone sodium phosphate]", "values": [
      {"measurement": "Effect on hyperpermeability of retinal vessels due to thrombin (in words)", "setting": "[1]", "result": "the hyperpermeability of retinal vessels due to thrombin is inhibited"},
      {"measurement": "Neovascularization exhibition rate (%, average of eight eyes)", "setting": "[2]; [5]", "result": 34.4, "unit": "%"},
      {"measurement": "Neovascularization exhibition rate (%, average of eight eyes)", "setting": "[2]; [6]", "result": 11.1, "unit": "%"}
    ]},
    {"smiles": "C[C@H]1C[C@H]2[C@@H]3CCC4=CC(=O)C=C[C@]4(C)[C@@]3(F)[C@@H](O)C[C@]2(C)[C@@]1(O)C(=O)CO", "note": "[Betamethasone]", "values": [
      {"measurement": "Pathogenesis rate of PVR", "setting": "[3]; after 6 weeks", "result": 45.5, "unit": "%"},
      {"measurement": "Pathogenesis rate of PVR", "setting": "[3]; after 10 weeks", "result": 37.5, "unit": "%"},
      {"measurement": "Pathogenesis rate of PVR", "setting": "[3]; after 10 weeks, listed as betamethasone", "result": 37.5, "unit": "%"}
    ]},
    {"smiles": "C[C@]12CCC(=O)C=C1CC[C@@H]1[C@@H]2[C@@H](O)C[C@@]2(C)[C@H]1CC[C@]2(O)C(=O)CO", "note": "[Hydrocortisone]", "values": [
      {"measurement": "Neovascularization exhibition rate (%, average of eight eyes)", "setting": "[4]; 100 μg/eye/day", "result": 45.3, "unit": "%"},
      {"measurement": "Choroidal neovascularization inhibition rate (%)", "setting": "[4]; 100 μg/eye/day", "result": 32.6, "unit": "%"},
      {"measurement": "Neovascularization exhibition rate (%, average of eight eyes)", "setting": "[4]; 1000 μg/eye/day", "result": 19.6, "unit": "%"},
      {"measurement": "Choroidal neovascularization inhibition rate (%)", "setting": "[4]; 1000 μg/eye/day", "result": 70.8, "unit": "%"},
      {"measurement": "Inhibitory effect on choroidal neovascularization (in words)", "setting": "[4]; both dosages of 100 μg/eye/day and 1,000 μg/eye/day", "result": "has an inhibitory effect on choroidal neovascularization"}
    ]},
    {"smiles": "C[C@]12C=CC(=O)C=C1CC[C@H]1[C@@H]3C[C@@H](O)[C@](O)(C(=O)CO)[C@@]3(C)C[C@H](O)[C@@]12F", "note": "[Triamcinolone]", "values": [
      {"measurement": "Neovascularization exhibition rate (%, average of eight eyes)", "setting": "[2]; [5]", "result": 46.9, "unit": "%"},
      {"measurement": "Choroidal neovascularization inhibition rate (%)", "setting": "[2]; 10 μg/eye/day subconjunctival for seven days", "result": 13.1, "unit": "%"},
      {"measurement": "Neovascularization exhibition rate (%, average of eight eyes)", "setting": "[2]; [6]", "result": 22.3, "unit": "%"},
      {"measurement": "Choroidal neovascularization inhibition rate (%)", "setting": "[2]; 100 μg/eye/day subconjunctival for seven days", "result": 58.8, "unit": "%"}
    ]}
  ]
}
